One data set deals with SIK1 (Homo sapiens (Human), UniProt P57059). The data set is described as follows: radiometric protein kinase assay (33PanQinase Activity Assay, ProQinase Free Choice Kinase Assay). Format: biochemical. Conditions: ATP 3.0 uM, read-out: SIK1 IC50 rank.
In the next data set the target is SIK2 (Homo sapiens (Human), UniProt Q9H0K1). The data set is described as above. In kind it is biochemical. Conditions: ATP 1.0 uM, read-out: SIK2 IC50 rank.
The next data set addresses SIK3 (Homo sapiens (Human), UniProt Q9Y2K2). The data set is described as above. Format: biochemical. The following applies: read-out: SIK3 IC50 rank.
Another data set concerns M579-A2-luc tumour cells. As to the kind of experiment: luciferase-based tumour cell viability assay, M579-A2-luc cells with inhibitor and TNF. Conditions: for tumour cell survival (RLU): in combination with 10 ng/mL TNF, about 20 to 100 nM, FIG. 18.
The next data set addresses ABL1 wt (Homo sapiens (Human), UniProt P00519). The data set is described as follows: radiometric protein kinase assay (33PanQinase Activity Assay, ProQinase Free Choice Kinase Assay). In kind it is biochemical. Conditions: indicative IC50, Table 4; ATP 0.3 uM; read-out: ABL1 IC50 rank.
Another data set deals with SRC (GST-HIS-tag) (Homo sapiens (Human), UniProt P12931). Described as above. In kind it is biochemical. Conditions: indicative IC50, Table 4; ATP 0.3 uM; read-out: SRC IC50 rank.
Data set [1] has as its system PANC-1 tumour cells. The data set is described as follows: Luc-CTL assay: PANC-1 cells co-cultured with TIL #1 in the presence of small molecule SIK inhibitor. The following applies: FIGS. 7A and 7B.
In data set [2] the test system is PANC-1 tumour cells.
A further data set deals with PANC-1-luc cells. The data set is described as follows: luciferase-based T cell-mediated killing assay of siRNA-transfected PANC-1-luc cells. Details: species or system human. The following applies: absence of T cells (viability setting). An excerpt: FIG. 2: Luciferase-based cytotoxicity assay for the assessment of T cell-mediated killing of siRNA transfected PANC-1-luc cells.
The inventors describe herein their surprising finding that SIK3 is a gene involved in tumour cell resistance against a cell-mediated immune response. Such role of SIK3 was first identified by the inventors using a high-throughput screening approach—to identify novel genes involved in mechanisms of tumour resistance towards T cell attack—as adapted and expanded from the screening approach developed and described by Khandelwal et al, 2015 (EMBO Mol Med 7:450). Briefly, using a siRNA library, 2514 genes were individually knocked-down in HLA-A2.1+ luciferase-expressing PANC1 cells (PANC1-luc), a pancreatic adenocarcinoma (PDAC) tumour cell line. Each gene's siRNA-transfected PANC1-luc tumour cells were then co-cultured with magnetically purified CD8+ T cells from an HLA-A2.1+ PDAC-derived tumour infiltrating lymphocyte culture (TIL #1). The impact of siRNA-mediated gene knockdown on TIL-mediated killing of tumour cells was measured using a luciferase-based cytotoxicity assay (cytotoxicity setting). In order to exclude those genes whose knockdown intrinsically affects cell viability, complementary screening was performed without the addition of TIL #1 (viability setting). False positive genes were further excluded using a luciferase-independent viability screen.
The present invention is based on the dramatic impact that inhibition of SIK3 of tumour cells determines a reduction of tumour cell survival after co-culture with a cell-mediated immune response. […]
The PANC1-luc cell line was constructed as follows: PANC-1 cells were acquired from the American Type Cell Culture (ATCC). […] After lysis, luciferase assay buffer was added and immediately the luciferase intensity was measured by using the TECAN-Spark microplate reader.

Another data set relates to M579 cells. As to the kind of experiment: real-time live-cell microscopy of TIL209-mediated lysis of shRNA-transduced tumour cells. Format: cell-based, human. The following applies: co-culture with HLA-A2.1+-matched TIL209, compared to shCtrl. An excerpt:
FIG. 15: Real-time live cell microscopy showing mean+/−SEM of TIL209-mediated lysis of M579 cells transduced with shCtrl or shSIK3 lentiviral constructs. The graph indicates the area of YOYO-1+ cells/well (um2/well).
SIK3 was stably knocked down in the primary line using SIK3-specific shRNA (shSIK3) or the control non-targeting shRNA sequence (shCtrl). The shRNA sequences targeting SIK3 are set forth in Table A2, and the transduced cell lines were produced briefly as follows: lentiviral transduction particles expressing an shRNA targeting SIK3 mRNA or control shRNA (Sigma-Aldrich) were used for transduction. 5×10^4 […] cells were seeded in a 6 well plate in DMEM 10% FCS 1% P/S. After 24 h, lentiviral particles were added using multiplicity of infection (MOI)=2. 48 h from transduction, cells were put under positive selection using 0.4 μg/ml puromycin. First, the shSIK3 or shCtrl transduced tumour cells were co-cultured with HLA-A2.1+−matched TIL209, and the extent of T cell-mediated killing was monitored using in vitro real-time live-cell microscopy. […] Second, the shSIK3 and shCtrl transduced tumour cells were subcutaneously injected into the left and the right flank, respectively, of NSG immune deficient mice (FIG. 16A), and adoptive cell transfer of TIL209 or PBS injection was applied i.v. once per week (FIG. 16B Scheme).

A further data set relates to M579 tumours. As to the kind of experiment: in vivo adoptive T cell transfer model, shCtrl or shSIK3-transduced M579 tumours in NSG mice. Details: species or system mouse. An excerpt:
FIG. 16: (A) Schematic representation of the in vivo mouse experiment. Subcutaneous (s.c.) implantation of shCtrl or shSIK3-transduced M579 cells was applied to the left and the right flank of immunodeficient (NOD scid gamma; NSG) mice, respectively. (B) Mice received intravenous (i.v.) injection of TIL209 (n=9) or PBS alone (n=7) at day 3, 10, 17 and 24. (C) Tumour growth curves showing mean+/−SEM of tumour volume (mm3) of shCtrl or shSIK3-engrafted M579 tumours in mice treated with either TIL209 or PBS. Statistical difference was calculated using unpaired one-side Mann-Whitney U-test. (D) Binding of TNF to TNFR1 (TNFR-I) on tumour cells results in downstream signalling cascade that involve caspase 8 cleavage, NF-kappaB nuclear translocation and SIK3 phosphorylation. NF-kappaB nuclear retention is sustained by its acetylation, and HDAC4 deacetylase acts as negative regulator of NF-kappaB. TNF stimulation increases the levels of pLKB1 which in turn results in increased SIK3 activation. […]
SIK3 was stably knocked down in the primary line using SIK3-specific shRNA (shSIK3) or the control non-targeting shRNA sequence (shCtrl). […] First, the shSIK3 or shCtrl transduced tumour cells were co-cultured with HLA-A2.1+−matched TIL209, and the extent of T cell-mediated killing was monitored using in vitro real-time live-cell microscopy. […]

Where [3] appears, read: indicative IC50, Table 2A, ATP 1.0 uM.

From US20250340886A1, “INTRACELLULAR KINASE ASSOCIATED WITH RESISTANCE AGAINST ANTI-TUMOUR IMMUNE RESPONSES, AND USES THEREOF” (iOmx Therapeutics AG, priority 2017, published 2025) come the findings set out here.

Like-named read-outs stand apart in the source and are kept apart here.

Chain of SIK2 (Q9H0K1 whole entry): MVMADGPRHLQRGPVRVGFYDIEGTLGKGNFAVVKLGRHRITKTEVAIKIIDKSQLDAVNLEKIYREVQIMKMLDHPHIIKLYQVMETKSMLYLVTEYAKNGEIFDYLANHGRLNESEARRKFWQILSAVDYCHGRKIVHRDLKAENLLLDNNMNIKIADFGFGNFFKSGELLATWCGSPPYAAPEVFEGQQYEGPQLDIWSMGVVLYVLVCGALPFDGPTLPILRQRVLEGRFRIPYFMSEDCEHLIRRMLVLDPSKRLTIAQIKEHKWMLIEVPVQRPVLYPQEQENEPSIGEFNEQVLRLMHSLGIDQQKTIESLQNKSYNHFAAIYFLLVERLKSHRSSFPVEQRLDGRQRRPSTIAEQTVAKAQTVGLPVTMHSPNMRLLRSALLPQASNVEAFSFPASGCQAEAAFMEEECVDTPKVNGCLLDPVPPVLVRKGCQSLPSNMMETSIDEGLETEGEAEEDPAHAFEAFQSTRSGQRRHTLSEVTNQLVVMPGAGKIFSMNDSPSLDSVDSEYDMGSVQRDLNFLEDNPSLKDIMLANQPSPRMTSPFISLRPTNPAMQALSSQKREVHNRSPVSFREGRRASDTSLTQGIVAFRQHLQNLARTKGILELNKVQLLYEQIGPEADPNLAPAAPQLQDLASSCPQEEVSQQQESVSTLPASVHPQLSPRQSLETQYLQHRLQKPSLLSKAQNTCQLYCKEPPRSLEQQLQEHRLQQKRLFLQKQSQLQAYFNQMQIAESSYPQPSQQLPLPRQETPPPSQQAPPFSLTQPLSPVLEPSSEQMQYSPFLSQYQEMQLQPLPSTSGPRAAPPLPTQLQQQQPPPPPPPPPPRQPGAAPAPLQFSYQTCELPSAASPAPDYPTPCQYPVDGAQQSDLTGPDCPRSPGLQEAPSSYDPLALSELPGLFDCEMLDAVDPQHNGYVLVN
Chain of SIK1 (P57059 whole entry): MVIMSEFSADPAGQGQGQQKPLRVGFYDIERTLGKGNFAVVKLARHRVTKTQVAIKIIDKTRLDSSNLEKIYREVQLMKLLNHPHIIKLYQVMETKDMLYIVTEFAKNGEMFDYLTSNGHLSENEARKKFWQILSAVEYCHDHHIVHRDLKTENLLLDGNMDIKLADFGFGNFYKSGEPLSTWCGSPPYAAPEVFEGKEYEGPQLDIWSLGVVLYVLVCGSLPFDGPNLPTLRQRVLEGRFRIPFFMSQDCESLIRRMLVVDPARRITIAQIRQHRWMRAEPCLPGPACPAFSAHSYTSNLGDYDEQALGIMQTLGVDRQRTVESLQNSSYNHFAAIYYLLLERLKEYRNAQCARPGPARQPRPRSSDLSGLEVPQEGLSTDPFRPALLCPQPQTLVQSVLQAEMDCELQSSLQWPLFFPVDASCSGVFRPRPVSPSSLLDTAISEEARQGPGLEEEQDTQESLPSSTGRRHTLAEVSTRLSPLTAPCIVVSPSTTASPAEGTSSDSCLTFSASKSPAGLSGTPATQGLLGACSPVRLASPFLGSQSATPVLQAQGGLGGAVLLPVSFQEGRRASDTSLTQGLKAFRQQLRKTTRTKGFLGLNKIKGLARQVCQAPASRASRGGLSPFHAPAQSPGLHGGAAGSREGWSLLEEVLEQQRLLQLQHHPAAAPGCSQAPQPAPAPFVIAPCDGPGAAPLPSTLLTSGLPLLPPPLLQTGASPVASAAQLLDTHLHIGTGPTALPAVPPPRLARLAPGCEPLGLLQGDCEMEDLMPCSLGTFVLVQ
Chain of SIK3 (Q9Y2K2 whole entry): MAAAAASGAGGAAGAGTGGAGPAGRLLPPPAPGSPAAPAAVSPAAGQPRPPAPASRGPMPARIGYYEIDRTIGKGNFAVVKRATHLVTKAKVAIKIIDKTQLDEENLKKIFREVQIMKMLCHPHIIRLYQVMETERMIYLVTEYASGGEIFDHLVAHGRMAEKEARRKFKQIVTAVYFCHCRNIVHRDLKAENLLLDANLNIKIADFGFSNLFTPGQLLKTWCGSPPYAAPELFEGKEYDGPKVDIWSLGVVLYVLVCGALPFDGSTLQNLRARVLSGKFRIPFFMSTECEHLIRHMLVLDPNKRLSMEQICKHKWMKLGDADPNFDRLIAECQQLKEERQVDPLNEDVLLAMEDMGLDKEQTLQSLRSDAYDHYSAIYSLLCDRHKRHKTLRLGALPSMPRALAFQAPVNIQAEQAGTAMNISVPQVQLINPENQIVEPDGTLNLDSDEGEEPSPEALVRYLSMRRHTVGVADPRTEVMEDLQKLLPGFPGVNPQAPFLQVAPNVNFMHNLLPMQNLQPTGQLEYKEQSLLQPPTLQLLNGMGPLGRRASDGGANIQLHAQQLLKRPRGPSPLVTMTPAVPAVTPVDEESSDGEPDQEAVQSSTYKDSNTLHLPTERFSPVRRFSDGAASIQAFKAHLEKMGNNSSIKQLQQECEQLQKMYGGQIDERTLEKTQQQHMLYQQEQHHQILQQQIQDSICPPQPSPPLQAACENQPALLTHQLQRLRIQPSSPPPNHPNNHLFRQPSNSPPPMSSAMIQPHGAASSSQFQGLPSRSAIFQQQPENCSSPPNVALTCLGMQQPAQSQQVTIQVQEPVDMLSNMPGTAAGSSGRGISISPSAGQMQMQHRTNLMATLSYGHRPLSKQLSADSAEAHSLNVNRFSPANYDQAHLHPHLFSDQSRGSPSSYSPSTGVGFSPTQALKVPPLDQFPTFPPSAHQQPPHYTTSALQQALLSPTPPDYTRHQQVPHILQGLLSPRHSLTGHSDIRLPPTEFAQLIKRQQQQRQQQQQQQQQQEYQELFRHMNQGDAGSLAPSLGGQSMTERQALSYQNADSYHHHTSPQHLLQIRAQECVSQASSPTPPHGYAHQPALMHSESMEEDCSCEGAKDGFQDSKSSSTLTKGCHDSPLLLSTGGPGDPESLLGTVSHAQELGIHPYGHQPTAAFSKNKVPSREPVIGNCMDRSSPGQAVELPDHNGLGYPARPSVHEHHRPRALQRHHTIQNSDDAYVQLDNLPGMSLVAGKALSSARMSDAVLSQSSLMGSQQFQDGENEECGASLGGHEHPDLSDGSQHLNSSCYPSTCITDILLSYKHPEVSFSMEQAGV
Chain of ABL1 wt (P00519 whole entry): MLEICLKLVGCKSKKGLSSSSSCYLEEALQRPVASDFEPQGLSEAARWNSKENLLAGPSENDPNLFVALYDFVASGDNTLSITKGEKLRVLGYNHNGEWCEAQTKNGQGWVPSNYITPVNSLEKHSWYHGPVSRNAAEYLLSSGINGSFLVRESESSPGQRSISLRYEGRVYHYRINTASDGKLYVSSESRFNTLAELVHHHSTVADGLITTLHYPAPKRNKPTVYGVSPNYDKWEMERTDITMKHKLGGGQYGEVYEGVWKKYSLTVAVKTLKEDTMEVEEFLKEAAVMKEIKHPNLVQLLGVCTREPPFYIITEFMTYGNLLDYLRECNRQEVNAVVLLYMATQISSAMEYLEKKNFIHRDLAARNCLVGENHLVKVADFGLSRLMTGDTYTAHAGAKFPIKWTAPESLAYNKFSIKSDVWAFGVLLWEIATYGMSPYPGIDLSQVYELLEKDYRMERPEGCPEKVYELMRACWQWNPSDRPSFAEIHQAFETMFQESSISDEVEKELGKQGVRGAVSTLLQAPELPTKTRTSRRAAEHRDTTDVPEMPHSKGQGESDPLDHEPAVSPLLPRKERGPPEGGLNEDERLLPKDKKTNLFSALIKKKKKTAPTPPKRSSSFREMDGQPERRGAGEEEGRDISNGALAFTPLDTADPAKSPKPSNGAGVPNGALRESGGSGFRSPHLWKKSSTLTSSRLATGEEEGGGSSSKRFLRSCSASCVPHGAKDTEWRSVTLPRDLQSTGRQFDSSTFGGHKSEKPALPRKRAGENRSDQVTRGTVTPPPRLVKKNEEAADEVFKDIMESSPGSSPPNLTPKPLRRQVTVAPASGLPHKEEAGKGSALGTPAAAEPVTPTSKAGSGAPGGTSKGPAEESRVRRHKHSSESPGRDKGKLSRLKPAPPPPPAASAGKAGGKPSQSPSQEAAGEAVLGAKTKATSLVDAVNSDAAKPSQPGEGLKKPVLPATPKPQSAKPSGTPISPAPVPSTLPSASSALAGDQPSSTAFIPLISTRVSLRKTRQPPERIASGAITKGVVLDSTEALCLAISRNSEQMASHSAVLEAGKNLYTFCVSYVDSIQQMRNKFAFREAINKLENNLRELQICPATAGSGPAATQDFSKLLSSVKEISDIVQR
Chain of SRC (GST-HIS-tag) (P12931 whole entry, looked up): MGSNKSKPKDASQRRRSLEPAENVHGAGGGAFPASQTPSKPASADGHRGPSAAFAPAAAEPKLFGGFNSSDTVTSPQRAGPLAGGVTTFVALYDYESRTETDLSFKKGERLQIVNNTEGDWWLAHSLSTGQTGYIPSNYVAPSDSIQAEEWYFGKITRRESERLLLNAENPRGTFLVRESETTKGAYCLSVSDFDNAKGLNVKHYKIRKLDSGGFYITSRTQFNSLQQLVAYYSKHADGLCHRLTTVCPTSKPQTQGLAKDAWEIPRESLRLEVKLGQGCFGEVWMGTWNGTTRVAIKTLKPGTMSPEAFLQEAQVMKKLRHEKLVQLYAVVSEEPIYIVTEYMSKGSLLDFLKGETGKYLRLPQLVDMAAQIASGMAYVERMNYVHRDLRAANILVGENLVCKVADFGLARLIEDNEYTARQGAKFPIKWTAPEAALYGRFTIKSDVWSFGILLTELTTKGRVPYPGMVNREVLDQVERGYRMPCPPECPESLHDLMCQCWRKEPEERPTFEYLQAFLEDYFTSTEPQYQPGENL

One may read the IC50 as the concentration that gives 50% inhibition. Consider `Cc1nc(Nc2ncc(C(=O)Nc3ccccc3S(=O)(=O)C(C)C)s2)cc(N2CCN(CCO)CC2)n1` [Compound A6, 2-((6-(4-(2-hydroxyethyl)piperazin-1-yl)-2-methylpyrimidin-4-yl)amino)-N-(2-(propane-2-sulfonyl)phenyl)thiazole-5-carboxamide], for which the IC50 on SIK1 (indicative IC50, Table 2A) is over 1000 nM; on SIK2 (indicative IC50, Table 2A), over 100 nM; at SIK3 (setting [3]) it was over 1000 nM. Besides, the “tumour cell survival (RLU)” value with M579-A2-luc tumour cells was “remains unaffected”.
With `Cc1nc(Nc2ncc(C(=O)Nc3ccccc3)s2)cc(N2CCN(CCO)CC2)n1` [Compound A11, ((6-(4-(2-hydroxyethyl)piperazin-1-yl)-2-methylpyrimidin-4-yl)amino)-N-phenylthiazole-5-carboxamide], the IC50 is over 100 nM at SIK1 (indicative IC50, Table 2A); over 100 nM at SIK2 (indicative IC50, Table 2A); over 1000 nM on SIK3 (setting [3]). Also, the “tumour cell survival (RLU)” value with M579-A2-luc tumour cells is recorded as “remains unaffected”.
In the case of `CCOc1cccc(Cl)c1NC(=O)c1cnc(Nc2cc(N3CCN(CCO)CC3)nc(C)n2)s1` [Compound B8, N-(2-chloro-6-ethoxyphenyl)-2-((6-(4-(2-hydroxyethyl)piperazin-1-yl)-2-methylpyrimidin-4-yl)amino)thiazole-5-carboxamide], the IC50 was over 1000 nM at SIK1 (indicative IC50, Table 4); over 1000 nM at SIK2 (indicative IC50, Table 4); over 5000 nM at SIK3; under 100 nM on ABL1 wt; under 100 nM on SRC (GST-HIS-tag). For the same molecule, in the data set on M579-A2-luc tumour cells (TNF 10 ng/mL, inhibitor between about 10 and 100 nM, FIG. 17), the “cytotoxicity of M579 A2 cells in combination with TNF compared to inhibitor alone” value is recorded as “fails to exhibit cytotoxicity”.
As to `COc1cc(Nc2c(C#N)cnc3cc(OCCCN4CCN(C)CC4)c(OC)cc23)c(Cl)cc1Cl` [bosutinib, 3-Quinolinecarbonitrile, 4-[(2,4-dichloro-5-methoxyphenyl)amino]-6-methoxy-7-[3-(4-methyl-1-piperazinyl)propoxy]-, hydrate (1:1)], in the data set with PANC-1 tumour cells [1], the “sensitivity to TILs and/or TNF-mediated tumour lysis (cytotoxicity to viability ratio in Luc-CTL assay)” value is reported as “remarkable increase in sensitivity to TILs and/or TNF-mediated tumour lysis”.
Regarding HG-9-91-01, the “sensitivity to TILs and/or TNF-mediated tumour lysis (cytotoxicity to viability ratio in Luc-CTL assay)” value in the data set on PANC-1 tumour cells [2] is reported as “remarkable increase in sensitivity to TILs and/or TNF-mediated tumour lysis”.
For “s1: SIK3 siRNA, sequence GCGCCAGGCUUUAUCUUAU, Dharmacon D-004779-01 (listed as RNA, chemistry not given here)”, the “cell viability of tumour cells” value in the data set with PANC-1-luc cells is given as “slight reduction of cell viability”.
Regarding “s2: SIK3 siRNA, sequence GAACAGCGACGAUGCUUAU, Dharmacon D-004779-05 (listed as RNA, chemistry not given here)”, the “cell viability of tumour cells” value with PANC-1-luc cells was “slight reduction of cell viability”.
Same read-out and setting: for “s3: SIK3 siRNA, sequence GCACUAACCUGCUUGGGUA, Dharmacon D-004779-06 (listed as RNA, chemistry not given here)” the value was “slight reduction of cell viability”.
With “shSIK3: SIK3-specific shRNA, Sigma TRCN0000037452, delivered by lentiviral transduction particles (DNA CCGGGCCAGGCTTTATCTTATCAAACTCGAGTTTGATAAGATAAAGCCTGGCTTTTTG)”, the T cell-mediated killing result in the data set with M579 cells was “increased killing efficacy”. Also, the tumour growth kinetic entry in the data set on M579 tumours (PBS-treated, shCtrl versus shSIK3) is listed as “no difference in the tumour growth kinetic”. The tumour growth entry with M579 tumours (s.c. tumours, TIL209 i.v. once per week, compared to shCtrl) is reported as “retardation of tumour growth”.
